Measurements taken from PubChem BioAssay (NCI).
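How tested: cells in 96-well plates exposed to compound for 48 hours at five concentrations. TGI: concentration producing complete growth inhibition.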 Where a SMILES comes first, the peptide text is derived from it. The star is where a group is joined. Boc = CC(C)(C)OC(=O)*; OBn = c1ccc(CO*)cc1

system: SNB-19 CNS; assay: NCI-60 cell line screen, 48 h

SMILES | TGI [µM]
CNc1c2cccc(C)c2nc2c(C(=O)NCCN(C)C)cccc12 | 0.876
O=C1CC(NC(=O)C(F)(F)F)c2c1csc2Br (configuration not stated) | > 100
CCC(Sc1cc(Cl)c(C)cc1S(=O)(=O)Nc1nc(N)nc(N(C)C)n1)C(=O)O (configuration not stated) | > 10
O=C(N/N=C/c1ccc2c(c1)OCO2)Nc1ccccc1Cl | > 79.3
C[C@]12C[C@H](c3ccccc3)Nc3ccccc3N1C(c1ccccc1)=NO2 | > 100
O=c1c(C=Nc2ccccc2Cl)c(O)n(-c2ccccc2)c(=O)n1-c1ccccc1 | > 100
CCOC(=O)NNC(=O)C1CSC(c2ccccc2)N1C(C)=O (configuration not stated) | > 100
Cc1ccc2nc(CN3CCCC(O)C3)cc(=O)n2c1 (configuration not stated) | > 100
CCOC(=O)C(SCCO)C(C(=O)OCC)n1cnc2c(N)ncnc21 (configuration not stated) | > 69.1
COc1ccc2nc3c([N+](=O)[O-])ccc4c3c(c2c1)N=CN4CCCN(C)C | 22.2
CC(C)C(NC(=O)C(Cc1ccccc1)NC(=O)OC(C)(C)C)C(=O)NCC(=O)OCc1ccccc1 (stereo not drawn) (Boc-Phe-Val-Gly-OBn; configuration not given here) | 58.4

system: UACC-257 melanoma; assay: NCI-60 cell line screen, 48 h

SMILES | TGI [µM]
CCOC(=O)C1=CN/C(=C(/C)C(=O)OC)SC1C(=O)OCC (configuration not stated) | > 100
Cc1ccc2c(c1)C(=O)/C(=N/Nc1ccc(Cl)cc1)CCO2 | > 100
COc1cc(C2SCC(=O)N2c2ccccc2Cl)cc(OC)c1OC (configuration not stated) | > 100
CN(C)c1ccc(/C=N\NC(=O)c2ccccc2Nc2ccccc2C(=O)N/N=C/c2ccc(N(C)C)cc2)cc1 | > 100
C=C1C(=O)OC2/C=C(\CO)C3OC3C3OC3(C)CC(OC(=O)/C(=C/C)CO)C12 (configuration not stated) | > 100
COc1cc(/C=C(\C#N)c2nc3ccccc3o2)ccc1O | > 100
COc1ccc2cc(CNCCCCCCCCCCCCNCc3ccc4cc(OC)ccc4c3)ccc2c1 | 36.3
COC(=O)c1c(O)ccc2c1c1c(n2Cc2ccccc2)C(=O)c2ccccc2C1=O | 32.8
Cc1csc2nc3c(cnn3C)c(=S)n12 | > 100
Cc1cc(C)nc(NS(=O)(=O)c2ccc(NNc3c4ccccc4nc4c(C(=O)Nc5ccc(S(=O)(=O)Nc6ncccn6)cc5)cccc34)cc2)n1 | 94.3
COCC(N=CN1CCCc2ccccc2[C@@H]1CCCCl)C(C)(C)C (some centres not stated) | 7.68
CNc1c2cccc(C)c2nc2c(C(=O)NCCN(C)C)cccc12 | 1.24
O=C1CC(NC(=O)C(F)(F)F)c2c1csc2Br (configuration not stated) | > 100
CCC(Sc1cc(Cl)c(C)cc1S(=O)(=O)Nc1nc(N)nc(N(C)C)n1)C(=O)O (configuration not stated) | > 10
O=C(N/N=C/c1ccc2c(c1)OCO2)Nc1ccccc1Cl | > 100
C[C@]12C[C@H](c3ccccc3)Nc3ccccc3N1C(c1ccccc1)=NO2 | > 100
O=c1c(C=Nc2ccccc2Cl)c(O)n(-c2ccccc2)c(=O)n1-c1ccccc1 | > 100
CCOC(=O)NNC(=O)C1CSC(c2ccccc2)N1C(C)=O (configuration not stated) | > 100
Cc1ccc2nc(CN3CCCC(O)C3)cc(=O)n2c1 (configuration not stated) | > 100
CCOC(=O)C(SCCO)C(C(=O)OCC)n1cnc2c(N)ncnc21 (configuration not stated) | > 80.2
COc1ccc2nc3c([N+](=O)[O-])ccc4c3c(c2c1)N=CN4CCCN(C)C | 17.2
CC(C)C(NC(=O)C(Cc1ccccc1)NC(=O)OC(C)(C)C)C(=O)NCC(=O)OCc1ccccc1 (stereo not drawn) (Boc-Phe-Val-Gly-OBn; configuration not given here) | 41.9

system: OVCAR-3 ovarian; assay: NCI-60 cell line screen, 48 h

SMILES | TGI [µM]
CCOC(=O)C1=CN/C(=C(/C)C(=O)OC)SC1C(=O)OCC (configuration not stated) | > 100
Cc1ccc2c(c1)C(=O)/C(=N/Nc1ccc(Cl)cc1)CCO2 | > 100
COc1cc(C2SCC(=O)N2c2ccccc2Cl)cc(OC)c1OC (configuration not stated) | > 100
CN(C)c1ccc(/C=N\NC(=O)c2ccccc2Nc2ccccc2C(=O)N/N=C/c2ccc(N(C)C)cc2)cc1 | > 100
C=C1C(=O)OC2/C=C(\CO)C3OC3C3OC3(C)CC(OC(=O)/C(=C/C)CO)C12 (configuration not stated) | > 100
COc1cc(/C=C(\C#N)c2nc3ccccc3o2)ccc1O | 40.9
COc1ccc2cc(CNCCCCCCCCCCCCNCc3ccc4cc(OC)ccc4c3)ccc2c1 | 37.1
COC(=O)c1c(O)ccc2c1c1c(n2Cc2ccccc2)C(=O)c2ccccc2C1=O | 47.5
Cc1csc2nc3c(cnn3C)c(=S)n12 | > 100
Cc1cc(C)nc(NS(=O)(=O)c2ccc(NNc3c4ccccc4nc4c(C(=O)Nc5ccc(S(=O)(=O)Nc6ncccn6)cc5)cccc34)cc2)n1 | 42.2
COCC(N=CN1CCCc2ccccc2[C@@H]1CCCCl)C(C)(C)C (some centres not stated) | 0.729
CNc1c2cccc(C)c2nc2c(C(=O)NCCN(C)C)cccc12 | 1.05
O=C1CC(NC(=O)C(F)(F)F)c2c1csc2Br (configuration not stated) | > 100
CCC(Sc1cc(Cl)c(C)cc1S(=O)(=O)Nc1nc(N)nc(N(C)C)n1)C(=O)O (configuration not stated) | > 10
O=C(N/N=C/c1ccc2c(c1)OCO2)Nc1ccccc1Cl | 2.82
C[C@]12C[C@H](c3ccccc3)Nc3ccccc3N1C(c1ccccc1)=NO2 | > 100
O=c1c(C=Nc2ccccc2Cl)c(O)n(-c2ccccc2)c(=O)n1-c1ccccc1 | > 100
CCOC(=O)NNC(=O)C1CSC(c2ccccc2)N1C(C)=O (configuration not stated) | > 100
Cc1ccc2nc(CN3CCCC(O)C3)cc(=O)n2c1 (configuration not stated) | > 100
